The NIST ThermoML archive (doi:10.1021/je049918m)
Several values for one entry are separate records, joined by “and”; a condition that tells them apart may be missing. Identical values can stand only once.

Conditions: Liquid, Falling or rolling sphere viscometry

[2H]O[2H] [water-d2]
Conditions	viscosity
255.65 K, 212200 kPa	3.963 mPa·s
255.65 K, 220100 kPa	3.973 mPa·s
255.65 K, 239200 kPa	4.012 mPa·s
255.65 K, 249500 kPa	4.036 mPa·s
258.15 K, 196900 kPa	3.566 mPa·s
258.15 K, 215300 kPa	3.588 mPa·s
258.15 K, 242900 kPa	3.629 mPa·s
258.15 K, 271000 kPa	3.697 mPa·s
258.15 K, 298500 kPa	3.777 mPa·s
258.15 K, 315600 kPa	3.835 mPa·s
263.15 K, 153200 kPa	2.939 mPa·s
263.15 K, 160800 kPa	2.937 mPa·s
263.15 K, 185300 kPa	2.944 mPa·s
263.15 K, 200800 kPa	2.953 mPa·s
263.15 K, 249500 kPa	3.02 mPa·s
263.15 K, 299600 kPa	3.125 mPa·s
263.15 K, 347100 kPa	3.26 mPa·s
263.15 K, 383400 kPa	3.381 mPa·s
268.15 K, 109700 kPa	2.494 mPa·s
268.15 K, 125300 kPa	2.475 mPa·s
268.15 K, 150900 kPa	2.468 mPa·s
268.15 K, 174700 kPa	2.464 mPa·s
268.15 K, 201200 kPa	2.481 mPa·s
268.15 K, 251400 kPa	2.535 mPa·s
268.15 K, 289200 kPa	2.601 mPa·s
268.15 K, 325500 kPa	2.675 mPa·s
268.15 K, 390600 kPa	2.85 mPa·s
273.15 K, 52000 kPa	2.196 mPa·s
273.15 K, 69600 kPa	2.159 mPa·s
273.15 K, 99700 kPa	2.116 mPa·s
273.15 K, 130400 kPa	2.098 mPa·s
273.15 K, 150600 kPa	2.096 mPa·s
273.15 K, 177300 kPa	2.103 mPa·s
273.15 K, 204300 kPa	2.119 mPa·s
273.15 K, 223000 kPa	2.135 mPa·s
273.15 K, 252900 kPa	2.165 mPa·s
273.15 K, 279500 kPa	2.203 mPa·s
273.15 K, 302900 kPa	2.234 mPa·s
273.15 K, 350500 kPa	2.318 mPa·s
273.15 K, 357500 kPa	2.336 mPa·s
273.15 K, 395200 kPa	2.435 mPa·s
278.15 K, 100 kPa	1.987 mPa·s
278.15 K, 3100 kPa	1.977 mPa·s
278.15 K, 5600 kPa	1.968 mPa·s
278.15 K, 8100 kPa	1.961 mPa·s
278.15 K, 10800 kPa	1.952 mPa·s
278.15 K, 25900 kPa	1.911 mPa·s
278.15 K, 50800 kPa	1.862 mPa·s
278.15 K, 75600 kPa	1.829 mPa·s
278.15 K, 100700 kPa	1.811 mPa·s
278.15 K, 125600 kPa	1.803 mPa·s
278.15 K, 150500 kPa	1.802 mPa·s
278.15 K, 174500 kPa	1.809 mPa·s
278.15 K, 199100 kPa	1.822 mPa·s
278.15 K, 224100 kPa	1.841 mPa·s
278.15 K, 249600 kPa	1.865 mPa·s
278.15 K, 299700 kPa	1.922 mPa·s
278.15 K, 349100 kPa	1.993 mPa·s
283.15 K, 100 kPa	1.677 mPa·s
283.15 K, 200 kPa	1.676 mPa·s and 1.677 mPa·s
283.15 K, 3000 kPa	1.67 mPa·s
283.15 K, 5600 kPa	1.665 mPa·s
283.15 K, 8100 kPa	1.66 mPa·s
283.15 K, 10800 kPa	1.655 mPa·s
283.15 K, 25800 kPa	1.629 mPa·s
283.15 K, 50800 kPa	1.597 mPa·s and 1.598 mPa·s
283.15 K, 100800 kPa	1.569 mPa·s and 1.567 mPa·s
283.15 K, 125500 kPa	1.566 mPa·s
283.15 K, 150600 kPa	1.57 mPa·s
283.15 K, 150800 kPa	1.569 mPa·s
283.15 K, 175500 kPa	1.579 mPa·s
283.15 K, 199400 kPa	1.592 mPa·s
283.15 K, 199700 kPa	1.592 mPa·s
283.15 K, 224300 kPa	1.608 mPa·s
283.15 K, 249600 kPa	1.629 mPa·s
283.15 K, 249700 kPa	1.63 mPa·s
283.15 K, 299200 kPa	1.678 mPa·s
283.15 K, 299600 kPa	1.678 mPa·s
283.15 K, 348600 kPa	1.737 mPa·s
283.15 K, 348700 kPa	1.737 mPa·s
298.15 K, 100 kPa	1.097 mPa·s [middle of 6 runs]
298.15 K, 200 kPa	1.095 mPa·s
298.15 K, 5600 kPa	1.092 mPa·s
298.15 K, 8000 kPa	1.09 mPa·s
298.15 K, 10300 kPa	1.091 mPa·s
298.15 K, 10700 kPa	1.09 mPa·s
298.15 K, 25700 kPa	1.084 mPa·s
298.15 K, 30700 kPa	1.084 mPa·s
298.15 K, 50700 kPa	1.079 mPa·s and 1.081 mPa·s
298.15 K, 60700 kPa	1.079 mPa·s
298.15 K, 75600 kPa	1.08 mPa·s
298.15 K, 90600 kPa	1.081 mPa·s
298.15 K, 90700 kPa	1.081 mPa·s
298.15 K, 100600 kPa	1.081 mPa·s
298.15 K, 120700 kPa	1.086 mPa·s
298.15 K, 125600 kPa	1.087 mPa·s
298.15 K, 130600 kPa	1.089 mPa·s
298.15 K, 150600 kPa	1.094 mPa·s and 1.095 mPa·s
298.15 K, 170500 kPa	1.104 mPa·s
298.15 K, 175600 kPa	1.105 mPa·s
298.15 K, 180600 kPa	1.108 mPa·s
298.15 K, 200600 kPa	1.117 mPa·s
298.15 K, 210200 kPa	1.122 mPa·s
298.15 K, 210600 kPa	1.123 mPa·s
298.15 K, 225500 kPa	1.131 mPa·s
298.15 K, 240600 kPa	1.141 mPa·s
298.15 K, 249700 kPa	1.146 mPa·s
298.15 K, 270500 kPa	1.16 mPa·s
298.15 K, 299600 kPa	1.181 mPa·s
298.15 K, 300300 kPa	1.182 mPa·s
298.15 K, 330100 kPa	1.205 mPa·s
298.15 K, 331900 kPa	1.205 mPa·s
298.15 K, 349000 kPa	1.221 mPa·s
298.15 K, 359800 kPa	1.23 mPa·s
298.15 K, 389400 kPa	1.257 mPa·s
